Experimental data published in patent publication US10829796B2, “Bacteria identification and antimicrobial susceptibility test” (priority 2015, dated 2020).

System: bacteria in clinical bovine mastitis milk samples
Assay: Combined bacteria identification and antimicrobial susceptibility test (colour of wells, MIC) on clinical bovine mastitis milk samples
Format: cell-based
Procedure: Clinical bovine mastitis milk samples were collected by a vet clinic in South Island, New Zealand. Samples were stored in the freezer for several months and shipped frozen to the testing facility. In this Example, the term “clinical” means that dairy cows had clinical symptoms of an udder infection e.g. cow behaved unusual, milk clots, swollen udder among other typical symptoms. Testing was executed in microwell plate comprising of 24 wells (3×8 wells).
In addition, 20 ul of clinical mastitis sample was added to each well with a laboratory pipette.
(§1) Abbreviations • 1. 80 ul GC+10 ul Tell: 80 ul Giolitti Cantoni base broth+10 ul Tellurite solution (1%); • 2. 80 ul TSB/Esc/Fer Cit: 80 ul Tryptic soy broth containing 0.25% Esculin and 0.125% Ammonium Ferric Citrate; • 3. 80 ul TSB/Esc/Fer Cit+10 ul Genta: 80 ul Tryptic soy broth containing 0.25% Esculin and 0.125% Ammonium Ferric Citrate+10 ul of Gentamycin solution 10 mg/ml; • 4. 80 ul McC/PR25: 80 ul MacConkey broth (single strength) containing 0.0125% phenol red; and • 5. 80 ul TSB/PR25: 80 ul Tryptic soy broth containing 0.0125% phenol red. Bacteria Identification
Columns A to C and rows 1 and 2 were used for bacteria identification. A1: coagulase positive Staph; A2: Staphylococci; B1: Strep group D; B2: Strep group D; C1: general enrichment media (gram+ and gram-bacteria); C2: coliform bacteria.
Column A3 to A8: serial dilution of benzyl penicillin as potassium. Column B3 to B8: serial dilution of ceftiofur as hydrochloride. Column C3 to C8: serial dilution of cloxacillin as sodium. Antibiotic concentrations are listed as free form ranging between 4 ug/ml to 0.05 ug/ml.
Minimum inhibitory substance concentration (MIC) is here defined as the concentration if a colour change occurs between two wells (one well remains red with drug concentration 1, the other one yellow with drug concentration 2, whereas drug concentration 1 is larger than drug concentration 2) then the MIC is the value of drug concentration 1.
Table 21 indicates the microwell plate configuration #1; Drugs: Benzylpenicillin as potassium; Cloxacillin as sodium; Ceftiofur as hydrochloride; Drug concentration in each well (A3 to C8) is based on 80 μl composition+10 μl drug solution+20 μl clinical mastitis milk sample and equivalent to listed drug concentration in μg/ml; 20 ul of clinical bovine mastitis milk sample was added to each well (A1 to C8).
In addition, each well received one drop of clinical sample from a transfer pipette which was on average about 35 mg. This was determined through weighing the well plate prior and after the addition of clinical mastitis samples. This weight was then divided by 24.
as §1, with “•” for “Abbreviations •”, “red.” for “red. Bacteria Identification”
Columns A to C and rows 1 and 2 were used for bacteria identification. A1: coagulase positive Staph; A2: Staphylococci; B1: Strep Group D; B2: -; C1: general enrichment media (gram+ and gram-); C2: coliform bacteria.
Column A3 to A8: serial dilution of benzyl penicillin as potassium. Drug concentrations given as free form ranging between 4 ug/ml to 0.05 ug/ml. Column B3 to B8: serial dilution of ceftiofur as hydrochloride. Drug concentrations given as free form ranging between 4 ug/ml to 0.05 ug/ml. Column C3 to C8: serial dilution of cloxacillin as sodium. Drug concentrations given as free form ranging between 4 ug/ml to 0.05 ug/ml.

Cc1onc(-c2ccccc2Cl)c1C(=O)N[C@@H]1C(=O)N2[C@@H]1SC(C)(C)[C@@H]2C(=O)O [cloxacillin]
Colour of media in each well (ID 1, T = 22 h, 37° C., plate configuration #1, drug 0.05 μg/ml): yellow | Colour of media in each well (ID 1, T = 22 h, 37° C., plate configuration #1, drug 0.1 μg/ml): yellow | Colour of media in each well (ID 1, T = 22 h, 37° C., plate configuration #1, drug 0.5 μg/ml): red | Colour of media in each well (ID 1, T = 22 h, 37° C., plate configuration #1, drug 1 μg/ml): red | Colour of media in each well (ID 1, T = 22 h, 37° C., plate configuration #1, drug 2 μg/ml): red | Colour of media in each well (ID 1, T = 22 h, 37° C., plate configuration #1, drug 4 μg/ml): red | Colour of media in each well (ID 2, T = 48 h, 37° C., plate configuration #1, drug 0.05 μg/ml): yellow | Colour of media in each well (ID 2, T = 48 h, 37° C., plate configuration #1, drug 0.1 μg/ml): yellow | Colour of media in each well (ID 2, T = 48 h, 37° C., plate configuration #1, drug 0.5 μg/ml): red | Colour of media in each well (ID 2, T = 48 h, 37° C., plate configuration #1, drug 1 μg/ml): red | Colour of media in each well (ID 2, T = 48 h, 37° C., plate configuration #1, drug 2 μg/ml): red | Colour of media in each well (ID 2, T = 48 h, 37° C., plate configuration #1, drug 4 μg/ml): red | Colour of media in each well (ID 3, T = 22 h, 37° C., plate configuration #1, drug 0.05 μg/ml): yellow | Colour of media in each well (ID 3, T = 22 h, 37° C., plate configuration #1, drug 0.1 μg/ml): yellow | Colour of media in each well (ID 3, T = 22 h, 37° C., plate configuration #1, drug 0.5 μg/ml): red | Colour of media in each well (ID 3, T = 22 h, 37° C., plate configuration #1, drug 1 μg/ml): red | Colour of media in each well (ID 3, T = 22 h, 37° C., plate configuration #1, drug 2 μg/ml): yellow | Colour of media in each well (ID 3, T = 22 h, 37° C., plate configuration #1, drug 4 μg/ml): yellow | Colour of media in each well (ID 3, T = 23 h, 37° C., Table 34, drug 0.05 μg/ml): yellow | Colour of media in each well (ID 3, T = 23 h, 37° C., Table 34, drug 0.1 μg/ml): yellow | Colour of media in each well (ID 3, T = 23 h, 37° C., Table 34, drug 0.5 μg/ml): red | Colour of media in each well (ID 3, T = 23 h, 37° C., Table 34, drug 1 μg/ml): red | Colour of media in each well (ID 3, T = 23 h, 37° C., Table 34, drug 2 μg/ml): yellow | Colour of media in each well (ID 3, T = 23 h, 37° C., Table 34, drug 4 μg/ml): yellow | Colour of media in each well (ID 3, T~7 h, 37° C., Table 34, drug 0.05 μg/ml): red | Colour of media in each well (ID 3, T~7 h, 37° C., Table 34, drug 0.1 μg/ml): red | Colour of media in each well (ID 3, T~7 h, 37° C., Table 34, drug 0.5 μg/ml): red | Colour of media in each well (ID 3, T~7 h, 37° C., Table 34, drug 1 μg/ml): red | Colour of media in each well (ID 3, T~7 h, 37° C., Table 34, drug 2 μg/ml): red | Colour of media in each well (ID 3, T~7 h, 37° C., Table 34, drug 4 μg/ml): red | Colour of media in each well (ID 3, T~11 h, 37° C., Table 34, drug 0.05 μg/ml): red | Colour of media in each well (ID 3, T~11 h, 37° C., Table 34, drug 0.1 μg/ml): red | Colour of media in each well (ID 3, T~11 h, 37° C., Table 34, drug 0.5 μg/ml): red | Colour of media in each well (ID 3, T~11 h, 37° C., Table 34, drug 1 μg/ml): red | Colour of media in each well (ID 3, T~11 h, 37° C., Table 34, drug 2 μg/ml): red | Colour of media in each well (ID 3, T~11 h, 37° C., Table 34, drug 4 μg/ml): red | Colour of media in each well (ID 4, T = 22 h, 37° C., plate configuration #1, drug 0.05 μg/ml): yellow | Colour of media in each well (ID 4, T = 22 h, 37° C., plate configuration #1, drug 0.1 μg/ml): yellow | Colour of media in each well (ID 4, T = 22 h, 37° C., plate configuration #1, drug 0.5 μg/ml): red | Colour of media in each well (ID 4, T = 22 h, 37° C., plate configuration #1, drug 1 μg/ml): red | Colour of media in each well (ID 4, T = 22 h, 37° C., plate configuration #1, drug 2 μg/ml): red | Colour of media in each well (ID 4, T = 22 h, 37° C., plate configuration #1, drug 4 μg/ml): red | Colour of media in each well (ID 5, T = 23 h, 37° C., plate configuration #2, drug 0.05 μg/ml): yellow | Colour of media in each well (ID 5, T = 23 h, 37° C., plate configuration #2, drug 0.1 μg/ml): yellow | Colour of media in each well (ID 5, T = 23 h, 37° C., plate configuration #2, drug 0.5 μg/ml): red | Colour of media in each well (ID 5, T = 23 h, 37° C., plate configuration #2, drug 1 μg/ml): red | Colour of media in each well (ID 5, T = 23 h, 37° C., plate configuration #2, drug 2 μg/ml): red | Colour of media in each well (ID 5, T = 23 h, 37° C., plate configuration #2, drug 4 μg/ml): red | Colour of media in each well (ID 5 to 8, T = 0 h (prior incubation, reference), plate configuration #2, drug 0.05 μg/ml): red | Colour of media in each well (ID 5 to 8, T = 0 h (prior incubation, reference), plate configuration #2, drug 0.1 μg/ml): red | Colour of media in each well (ID 5 to 8, T = 0 h (prior incubation, reference), plate configuration #2, drug 0.5 μg/ml): red
